From paper PMC10361207, “Cannabinoid and Opioid Receptor Affinity and Modulation of Cancer-Related Signaling Pathways of Machaeriols and Machaeridiols from Machaerium Pers” (Molecules, 2023)
“Also recorded” adds a separate entry of the source.

Biological target: T1, CB2 receptor (Homo sapiens, UniProt P34972)
T1 construct: expressed in transfected cells; host or cells: HEK293 (ATCC), stably transfected; membranes
Test: Competitive radioligand binding assay, CB2
Details: 10 μM; [3H]-CP55,940
Protocol: (§1) HEK293 cells stably transfected with δ, κ and μ opioid subtypes were a generous gift from Roth Laboratories (University of North Carolina at Chapel Hill, N.C., USA). CB and opioid cells were maintained as previously described.
(§2) Membranes were purified by first washing the cells with cold PBS and scraping the cells into cold 50 mM Tris-HCl, pH 7.4 buffer, which was centrifuged at 5200× g for 10 min at 4 °C; next, the supernatant was discarded, and the pellet was washed with more Tris-HCl buffer, homogenized via a Sonic Dismembrator (Fisher Scientific, Pittsburgh, PA, USA) and then centrifuged at 24,000× g for 40 min at 4 °C. Finally, the pellet was re-suspended in cold 50 mM Tris-HCl buffer, aliquoted into 2 mL vials and stored at −80 °C. The total membrane protein concentration was measured using a Pierce BCA Protein Assay Kit (Thermo Scientific, Rockford, IL, USA) as per the manufacturer’s protocol.
(§3) Cannabinoid and opioid competitive radioligand binding assays were performed as previously described. Saturation experiments were performed for all the receptors to determine the receptor concentration and radioligand dissociation constant (Kd) for the membrane. Percent displacements were evaluated for all the cannabinoid and opioid subtypes with a triplicate of a fixed concentration (10 µg/mL for extracts and fractions and 10 μM for purified compounds). […] Control/test compounds were dissolved in DMSO at 10 μg/mL for extracts and fractions and 10 μM for purified compounds. […] The percent displacement was calculated to represent the ability of the samples to displace the radioligand binding for a given cannabinoid or opioid receptor subtype.
(§4) The percent displacement was calculated as follows: 100−binding of compound−nonspecific binding/specific binding×100
(§5) The competitive binding assays were performed using 12 serial dilutions of each compound ranging from 0.002 to 300 μM (control compounds were serially diluted from 10 μM to 0.06 nM). The cannabinoid assays were incubated for 90 min at 37 °C with gentle agitation. The opioid assays were incubated for 60 min at room temperature. Bound radioligands were collected on GF/C (cannabinoid) or GF/B plates (opioid) and washed 10 times with ice-cold 50 mM Tris-HCl (pH 7.4)/0.1% BSA (cannabinoid) or ice-cold 50 mM Tris-HCl (pH 7.4) (opioid). Radiodetection was measured with 50 µL (cannabinoid) or 25 µL (opioid) of MicroScint^TM-20 on a TopCount NXT HTS Microplate Scintillation Counter (PerkinElmer, Waltham, MA, USA). The IC50 and Ki values were calculated via a non-linear curve fit model using GraphPad Prism 5.0 software (GraphPad Software, Inc., San Diego, CA, USA). Each compound was tested in triplicate unless stated otherwise.

T1 sequence (P34972 whole entry): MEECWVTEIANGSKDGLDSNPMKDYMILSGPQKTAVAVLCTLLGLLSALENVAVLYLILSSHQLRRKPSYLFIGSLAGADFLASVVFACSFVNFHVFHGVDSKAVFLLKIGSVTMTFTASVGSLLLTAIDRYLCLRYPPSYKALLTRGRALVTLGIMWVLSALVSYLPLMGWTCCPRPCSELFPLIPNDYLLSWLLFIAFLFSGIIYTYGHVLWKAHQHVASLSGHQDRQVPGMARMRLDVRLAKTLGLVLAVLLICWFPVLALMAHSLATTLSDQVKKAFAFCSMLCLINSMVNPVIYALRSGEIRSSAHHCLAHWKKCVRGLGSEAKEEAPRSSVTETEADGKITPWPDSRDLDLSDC

| Structure (SMILES) | Percent displacement, CB2 |
| --- | --- |
| C[C@H]1CC[C@H]2[C@H](C1)c1c(O)cc(-c3cc4ccccc4o3)cc1OC2(C)C [compound 2, machaeriol B] | 13.7% |

Biological target: T2, δ opioid receptor (Homo sapiens, UniProt P41143)
T2 construct: host or cells: HEK293, stably transfected; membranes
Test: Competitive radioligand binding assay, δ opioid
Details: 10 μM; [3H]-enkephalin (DPDPE); read-out: Percent displacement, Δ
Protocol: as §1, §2, §3, §4, §5

T2 sequence (P41143 whole entry): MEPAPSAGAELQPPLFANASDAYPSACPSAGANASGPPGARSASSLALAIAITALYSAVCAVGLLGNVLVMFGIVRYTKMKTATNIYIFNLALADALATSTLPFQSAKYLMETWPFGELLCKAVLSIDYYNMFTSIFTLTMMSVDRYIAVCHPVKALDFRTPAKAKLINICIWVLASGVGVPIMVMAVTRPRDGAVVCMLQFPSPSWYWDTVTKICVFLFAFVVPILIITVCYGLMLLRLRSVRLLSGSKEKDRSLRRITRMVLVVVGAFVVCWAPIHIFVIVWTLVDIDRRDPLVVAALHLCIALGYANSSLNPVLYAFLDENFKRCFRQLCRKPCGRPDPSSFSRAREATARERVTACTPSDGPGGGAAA

| Structure (SMILES) | inhibition at 10 µM |
| --- | --- |
| C[C@H]1CC[C@H]2[C@H](C1)c1c(O)cc(-c3cc4ccccc4o3)cc1OC2(C)C [compound 2, machaeriol B] | 61.7% |

Biological target: T3, μ opioid receptor (Homo sapiens, UniProt P35372)
T3 construct: host or cells: HEK293, stably transfected; membranes
Test: biochemical
Type: binding
Details: 10 μM; [3H]-DAMGO
Protocol: as §1, §2, §3, §4, §5

T3 sequence (P35372 whole entry): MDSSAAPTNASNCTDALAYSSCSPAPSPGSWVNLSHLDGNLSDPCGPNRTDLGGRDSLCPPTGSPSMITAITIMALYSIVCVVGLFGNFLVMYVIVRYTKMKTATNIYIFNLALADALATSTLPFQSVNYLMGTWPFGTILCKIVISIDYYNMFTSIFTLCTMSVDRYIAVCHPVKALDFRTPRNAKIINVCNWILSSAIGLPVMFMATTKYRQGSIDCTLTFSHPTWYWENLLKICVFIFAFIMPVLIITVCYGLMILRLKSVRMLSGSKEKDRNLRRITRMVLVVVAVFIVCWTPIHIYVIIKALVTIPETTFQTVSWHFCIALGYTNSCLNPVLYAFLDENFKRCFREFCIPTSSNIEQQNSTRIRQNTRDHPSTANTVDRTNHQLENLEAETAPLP

| Structure (SMILES) | Percent displacement, µ |
| --- | --- |
| C[C@H]1CC[C@H]2[C@H](C1)c1c(O)cc(-c3cc4ccccc4o3)cc1OC2(C)C [compound 2, machaeriol B] | 37.6% |

System: not listed separately
Test: Cytotoxicity, Neutral Red, SK-MEL
Type: cell-based
Details: human, SK-MEL malignant melanoma cells, Na = not active up to 50 µg/mL
Protocol: (§6) In vitro cytotoxic activity was determined against five human cancer cell lines—malignant melanoma (SK-MEL), epidermal carcinoma oral (KB), ductal carcinoma breast (BT-549), ovary carcinoma (SKOV-3) and cervical (HeLa) cancer cells—and two non-cancerous kidney cell lines (LLC-PK1 and Vero). All cell lines were obtained from the American Type Culture Collection (ATCC, Rockville, MD, USA). Each assay was performed in 96-well tissue culture-treated microplates. The cells were seeded at a density of 25,000 cells/well and incubated for 24 h. Samples at different concentrations were added, and the cells were incubated again for 48 h. At the end of the incubation, the cell viability was determined using Neutral Red dye according to a modification of the procedure used by Borenfreund et al.. IC50 values were determined from dose–response curves of the percent growth inhibition against test concentrations. Doxorubicin was used as a positive control, while DMSO was used as the negative (vehicle) control.

| Structure (SMILES) | IC50 at 48 h |
| --- | --- |
| C[C@H]1CC[C@H]2[C@H](C1)c1c(O)cc(-c3cc4ccccc4o3)cc1OC2(C)C [compound 2, machaeriol B] | > 50 µg/mL |

System: SK-MEL, KB, BT-549, SK-OV-3, HeLa, LLC-PK1 and Vero cells
Test: Cytotoxicity, summary over the cell line panel
Type: cell-based
Details: highest tested concentration of 50 µg/mL; most of the cells
Protocol: as §6

| Structure (SMILES) | Cytotoxicity (in words) |
| --- | --- |
| C[C@H]1CC[C@H]2[C@H](C1)c1c(O)cc(-c3cc4ccccc4o3)cc1OC2(C)C [compound 2, machaeriol B] | inactive |

System: Stat3
Test: Luciferase reporter assay, Stat3, HeLa
Type: cell-based, human
Details: Homo sapiens; HeLa cells; inducer IL6; dash: not inhibited by more than 40% at 50 µmol/L
Protocol: (§7) Hela cells (or T98G cells) from ATCC were plated in white opaque 384-well plates at a density of 4300 cells/well in 30 µL of growth medium (DMEM with 10% FBS and 1% Pen/Strep). The next day, the medium was aspirated and replaced with DMEM containing 1% FBS. The cells were transfected with respective plasmids using X-tremeGENE HP DNA transfection reagent (Roche). After 24 h of transfection, the test agents were added to the transfected cells, followed 30 min later by an inducing agent: interleukin 6 (IL-6) for Stat3, TGF-β for Smad, m-wnt3a for Wnt and PMA for AP-1, NF-κB, E2F, Myc, ETS, Notch and Hedgehog. No inducer was added for FoXO and pTK. After 4 h or 6 h of induction, the cells were lysed via the addition of the One-Glo luciferase assay system (Promega; Madison, WI). The light output was detected in a GloMax®-Multi+ Detection System with Instinct® Software (Promega E 8051). This luciferase assay determines if the test agent is able to inhibit the activation of cancer-related signaling pathways. In the case of FoxO, the enhanced luciferase activity via the test agent was assessed.

| Structure (SMILES) | IC50 |
| --- | --- |
| C[C@H]1CC[C@H]2[C@H](C1)c1c(O)cc(-c3cc4ccccc4o3)cc1OC2(C)C [compound 2, machaeriol B] | 11.3 µM |

System: Smad2/3
Test: Luciferase reporter assay, Smad2/3, HeLa
Type: cell-based, human
Details: Homo sapiens; HeLa cells; inducer TGF-beta; dash: not inhibited by more than 40% at 50 µmol/L
Protocol: as §7

| Structure (SMILES) | IC50 |
| --- | --- |
| C[C@H]1CC[C@H]2[C@H](C1)c1c(O)cc(-c3cc4ccccc4o3)cc1OC2(C)C [compound 2, machaeriol B] | 11 µM |

System: AP-1
Test: Luciferase reporter assay, AP-1, HeLa
Type: cell-based, human
Details: Homo sapiens, read-out: IC50, Ap-1 (PMA)
Protocol: as §7

| Structure (SMILES) | IC50 |
| --- | --- |
| C[C@H]1CC[C@H]2[C@H](C1)c1c(O)cc(-c3cc4ccccc4o3)cc1OC2(C)C [compound 2, machaeriol B] | 10 µM |

System: NF-κB
Test: Luciferase reporter assay, NF-κB, HeLa
Type: cell-based
Details: Homo sapiens; HeLa cells; inducer PMA; dash: not inhibited by more than 40% at 50 µmol/L
Protocol: as §7

| Structure (SMILES) | IC50 |
| --- | --- |
| C[C@H]1CC[C@H]2[C@H](C1)c1c(O)cc(-c3cc4ccccc4o3)cc1OC2(C)C [compound 2, machaeriol B] | 8.4 µM |

System: E2F
Test: Luciferase reporter assay, E2F, HeLa
Type: cell-based, human
Details: Homo sapiens, HeLa, read-out: IC50, E2F (PMA)
Protocol: as §7

| Structure (SMILES) | IC50 |
| --- | --- |
| C[C@H]1CC[C@H]2[C@H](C1)c1c(O)cc(-c3cc4ccccc4o3)cc1OC2(C)C [compound 2, machaeriol B] | 8.8 µM |

System: Myc
Test: Luciferase reporter assay, Myc, HeLa
Type: cell-based
Details: Homo sapiens; HeLa cells; inducer PMA; dash: not inhibited by more than 40% at 50 µmol/L
Protocol: as §7

| Structure (SMILES) | IC50 |
| --- | --- |
| C[C@H]1CC[C@H]2[C@H](C1)c1c(O)cc(-c3cc4ccccc4o3)cc1OC2(C)C [compound 2, machaeriol B] | 7.7 µM |

System: ETS
Test: Luciferase reporter assay, ETS, HeLa
Type: cell-based, human
Details: Homo sapiens; HeLa cells; inducer PMA; dash: not inhibited by more than 40% at 50 µmol/L
Protocol: as §7

| Structure (SMILES) | IC50 |
| --- | --- |
| C[C@H]1CC[C@H]2[C@H](C1)c1c(O)cc(-c3cc4ccccc4o3)cc1OC2(C)C [compound 2, machaeriol B] | 9.5 µM |

System: Notch
Test: Luciferase reporter assay, Notch, HeLa
Type: cell-based
Details: Homo sapiens; HeLa cells; inducer PMA; dash: not inhibited by more than 40% at 50 µmol/L
Protocol: as §7

| Structure (SMILES) | IC50 |
| --- | --- |
| C[C@H]1CC[C@H]2[C@H](C1)c1c(O)cc(-c3cc4ccccc4o3)cc1OC2(C)C [compound 2, machaeriol B] | 7.3 µM |

System: FoxO
Test: Luciferase reporter assay, FoxO, HeLa
Type: cell-based
Details: Homo sapiens; HeLa cells; no inducer; dash: no activity detected; read-out: IC50, FoxO (None)
Protocol: as §7

| Structure (SMILES) | IC50 |
| --- | --- |
| C[C@H]1CC[C@H]2[C@H](C1)c1c(O)cc(-c3cc4ccccc4o3)cc1OC2(C)C [compound 2, machaeriol B] | > 50 µM |

System: Wnt
Test: Luciferase reporter assay, Wnt, HeLa
Type: cell-based
Details: Homo sapiens; HeLa cells; inducer m-wnt3a; dash: not inhibited by more than 40% at 50 µmol/L
Protocol: as §7

| Structure (SMILES) | IC50 |
| --- | --- |
| C[C@H]1CC[C@H]2[C@H](C1)c1c(O)cc(-c3cc4ccccc4o3)cc1OC2(C)C [compound 2, machaeriol B] | 9.1 µM |

System: Hedgehog
Test: Luciferase reporter assay, Hedgehog, HeLa
Type: cell-based, human
Details: Homo sapiens; HeLa cells; inducer PMA; dash: not inhibited by more than 40% at 50 µmol/L
Protocol: as §7

| Structure (SMILES) | IC50 |
| --- | --- |
| C[C@H]1CC[C@H]2[C@H](C1)c1c(O)cc(-c3cc4ccccc4o3)cc1OC2(C)C [compound 2, machaeriol B] | 6.9 µM |

System: cannabinoid receptor 1 (CB1 receptor)
Test: not given
Details: earlier studies; cited from earlier work

| Structure (SMILES) | Affinity for CB1 (in words) |
| --- | --- |
| C[C@H]1CC[C@H]2[C@H](C1)c1c(O)cc(-c3cc4ccccc4o3)cc1OC2(C)C [compound 2, machaeriol B] | insignificant affinity; also recorded: did not show any affinity |
